Read-outs that look alike come from different tables or passages of the source.

One experiment concerns the target T1, F508delCFTR (Homo sapiens, UniProt P13569, DEL508-508).
T1 construct: expressed in transfected cells; host or cells: CFBE41o- human lung derived epithelial cell line, doxycycline-induced expression
Kind of experiment: Cell Surface Expression-Horse Radish Peroxidase (CSE-HRP) assay in CFBE41o-F508delCFTR-HRP cells. Type of experiment: cell-based. The conditions noted are these: for EC50: CFBE41o-F508delCFTR-HRP cells, 18-24 hours at 33° C.; for Emax / Maximum % activity (with co-corrector): normalized to on-plate positive control; for Emax: read-out: Maximum % activity (without co-corrector). On the procedure:
A cellular assay for measuring the F508delCFTR cell surface expression after correction with test compounds either without or with a co-corrector (2 μM of 3-[(2R,4R)-4-({[1-(2,2-difluoro-1,3-benzodioxol-5-yl)cyclopropyl]carbonyl}amino)-7-methoxy-3,4-dihydro-2H-chromen-2-yl]benzoic acid), was developed in human lung derived epithelial cell line (CFBE41o-) (Veit G et al, (2012) Mol Biol Cell. 23(21): 4188-4202). The development was achieved by expressing the F508delCFTR mutation along with a horseradish peroxidase (HRP) in the fourth exofacial loop, and then measuring the HRP activity using luminescence readout from these cells, CFBE41o-F508delCFTR-HIRP, that were incubated overnight with the test corrector compounds, either without or with the co-corrector. For this primary assay, the CFBE41o-F508delCFTR-HRP cells were plated in 384-well plates (Greiner Bio-one; Cat 781080) at 4,000 cells/well along with 0.5 μg/mL doxycycline to induce the F508delCFTR-HRP expression and further incubated at 37° C., […] for 68-72 hours. The test compounds were then added either without or with a co-corrector at the required concentrations and further incubated for 18-24 hours at 33° C. The highest concentration tested was 20 μM or 30 μM (GI-1 to GIII-36) with an 8-point concentration response curve using a 3-fold dilution in both the test compound without or with the co-corrector. Three replicate plates were run to determine one EC50. All plates contained negative controls (dimethyl sulfoxide, DMSO) and positive control (2 μM or 3 μM (GI-1 to GIII-36) of 3-[(2R,4R)-4-({[1-(2,2-difluoro-1,3-benzodioxol-5-yl)cyclopropyl]carbonyl}amino)-7-methoxy-3,4-dihydro-2H-chromen-2-yl]benzoic acid) as well as on-plate concentration response of the positive control. Post incubation, the plates were washed 5× times with Dulbecco's phosphate buffered saline (DPBS), followed by the addition of the HRP substrate, luminol (50 μL), and measuring the HRP activity using luminescence readout on EnVision® Multilabel Plate Reader (Perkin Elmer; product number 2104-0010). The raw counts from the experiment were analyzed using Accelrys® Assay Explorer v3.3.
Z′ greater than 0.5 was used as passing quality control criteria for the plates. The Z′ is defined as:
1−[3*SDPositive Control+3*SDNegative Control/Absolute(MeanPositive Control−MeanNegative Control)]
The % activity measured at each of the 8 test concentrations of the test compound added either without or with a co-corrector (2 μM or 3 μM (GI-1 to GIII-36) of 3-[(2R,4R)-4-({[1-(2,2-difluoro-1,3-benzodioxol-5-yl)cyclopropyl]carbonyl}amino)-7-methoxy-3,4-dihydro-2H-chromen-2-yl]benzoic acid) was normalized to the on-plate positive control using the following formulae:
% activity (Test compound without co-corrector)=[(test compound without co-corrector response−DMSO response)/(positive control response−DMSO response)]*100
% activity (Test compound with co-corrector)=[(test compound with co-corrector response−DMSO response)/(positive control response−DMSO response)]*100
The maximum % activity achieved for the test compound either without or with a co-corrector at any tested concentration is presented in Table 3 along with the respective EC50's calculated using the following general sigmoidal curve with variable Hill slope equation (described as Model 42 in the Accelrys® Assay Explorer v3.3 software):
General sigmoidal curve with concentration, response, top, bottom, EC50 and Hill slope. This model describes a sigmoidal curve with an adjustable baseline, a. The equation can be used to fit curves where response is either increasing or decreasing with respect to the independent variable, “x”.

For another experiment, the target named is T2, F508del/F508del CFTR (Homo sapiens, UniProt P13569, DEL508-508).
T2 construct: cells isolated from CF patients with the homozygous mutation; endogenous in cells; host or cells: primary human bronchial epithelial (hBE) cells from CF patients homozygous for F508del
Kind of experiment: Trans-Epithelial Current Clamp (TECC) assay using primary human bronchial epithelial cells. Type of experiment: cell-based. The settings on record: for Emax (% Dual): maximum percent activity relative to positive control (co-corrector 0.15 μM + potentiator 0.45 μM = 100%); for EC50: primary hBE cells F508del/F508del, test corrector with co-corrector and potentiator, 18-24 hours, equivalent CFTR current. An excerpt:
A cell-based assay was developed using the primary human bronchial epithelial cells (hBE cells) with F508del/F508del CFTR and other mutations.
Primary human bronchial epithelial (hBE) cells from CFTR patients with homozygous F508del/F508del mutation were expanded from 1×10^6 to 250×10^6 cells (Neuberger, T et al., 2011, Methods Mol Biol 741:39-54). For this purpose, cells isolated from CF patients with the homozygous mutation, procured from the CF center tissue procurement and cell culture core at the Marsico Lung Institute at UNC (Randell), the Cystic Fibrosis translational research center at McGill University (University), and Rosalind Franklin University Medical School (RFUMS) were seeded onto 24 well Corning (Cat #3378) filter plates that were coated with 3T3 conditioned media and grown at an air-liquid interface for 35 days using an Ultroser® G supplemented differentiation media. All the primary human bronchial epithelial cells were collected in accordance with institutional review board approval protocols. Apical surface mucus was removed 72 hours before the experiment by incubating the apical surface of the cells for 30 minutes with 3 mM dithiothreitol (DTT) prepared in Dulbecco's phosphate buffered saline (DPBS) with Ca^2+ and Mg^2+. This was followed with aspiration of the mucus from the apical surface along with DPBS. The apical surface was re-washed with phosphate buffered saline (PBS) incubated for 30 minutes followed with aspiration. These hBE cells were then incubated with the desired concentrations of the test C2 corrector compounds along with co-corrector, 4-[(2R,4R)-4-({[1-(2,2-difluoro-1,3-benzodioxol-5-yl)cyclopropyl]carbonyl}amino)-7-(difluoromethoxy)-3,4-dihydro-2H-chromen-2-yl]benzoic acid and potentiator, (5-{3-amino-5-[4-(trifluoromethoxy)benzene-1-sulfonyl]pyridin-2-yl}-1,3,4-oxadiazol-2-yl)methanol, for 18-24 hours at 37° C., 5% CO2. The desired concentrations of the correctors and potentiator compounds were prepared from the 10 mM stocks in differentiation media and were always applied on the basolateral side of the epithelial cells. We also used an assay format where a fixed concentration of potentiator was added chronically along with the corrector compounds. This chronic treatment with the potentiator helped eliminate any interaction that might happen with CFTR modulators (correctors and potentiators) and thereby determined the true efficacy of the modulator combinations reflective of clinical relevance.
The assay uses a Transepithelial Current Clamp (TECC) (Vu, C B et al., 2017; J Med Chem 60:458-473) instrument that can measure the functionality of the mutated channel by measuring the equivalent CFTR current (IEQ) generated by the polarized primary epithelial cells. We used a TECC-24 with a 24-channel electrode manifold allowing for the simultaneous measurement of the transepithelial voltage, VT, and transepithelial resistance, RT, under current clamp conditions, from 24 filters using a 24 well Costar filter plate. The design of the filters in the 24 well filter plates was exactly the same as the design of an individual Transwell filter used in the classical Ussing Chamber with a surface area of 0.33 cm^2. Each measured VT values were corrected for the electrode offset potential measured using buffer alone in a separate plate, and each measured RT values were then corrected for the combined solution series and empty filter resistances. The corrected VT and RT values were then used to calculate the equivalent current, IEQ using Ohm's law (IEQ=VT/RT). The area under the curve (AUC) for the time period between the forskolin peak IEQ response and at the time of bumetanide addition was also calculated using a one-third trapezoid method, in addition to calculating the IEQ. The assay was run in a 24-well format and all 24-wells were measured at the same time point giving a higher throughput for this assay. […]

Where [1] appears, read: with co-corrector 2 μM, read-out: EC50 (with co-corrector).
The mark [2] stands for this setting: without co-corrector, read-out: EC50 (without co-corrector).

T1 sequence (P13569 with tags, fused parts or gaps DEL508-508): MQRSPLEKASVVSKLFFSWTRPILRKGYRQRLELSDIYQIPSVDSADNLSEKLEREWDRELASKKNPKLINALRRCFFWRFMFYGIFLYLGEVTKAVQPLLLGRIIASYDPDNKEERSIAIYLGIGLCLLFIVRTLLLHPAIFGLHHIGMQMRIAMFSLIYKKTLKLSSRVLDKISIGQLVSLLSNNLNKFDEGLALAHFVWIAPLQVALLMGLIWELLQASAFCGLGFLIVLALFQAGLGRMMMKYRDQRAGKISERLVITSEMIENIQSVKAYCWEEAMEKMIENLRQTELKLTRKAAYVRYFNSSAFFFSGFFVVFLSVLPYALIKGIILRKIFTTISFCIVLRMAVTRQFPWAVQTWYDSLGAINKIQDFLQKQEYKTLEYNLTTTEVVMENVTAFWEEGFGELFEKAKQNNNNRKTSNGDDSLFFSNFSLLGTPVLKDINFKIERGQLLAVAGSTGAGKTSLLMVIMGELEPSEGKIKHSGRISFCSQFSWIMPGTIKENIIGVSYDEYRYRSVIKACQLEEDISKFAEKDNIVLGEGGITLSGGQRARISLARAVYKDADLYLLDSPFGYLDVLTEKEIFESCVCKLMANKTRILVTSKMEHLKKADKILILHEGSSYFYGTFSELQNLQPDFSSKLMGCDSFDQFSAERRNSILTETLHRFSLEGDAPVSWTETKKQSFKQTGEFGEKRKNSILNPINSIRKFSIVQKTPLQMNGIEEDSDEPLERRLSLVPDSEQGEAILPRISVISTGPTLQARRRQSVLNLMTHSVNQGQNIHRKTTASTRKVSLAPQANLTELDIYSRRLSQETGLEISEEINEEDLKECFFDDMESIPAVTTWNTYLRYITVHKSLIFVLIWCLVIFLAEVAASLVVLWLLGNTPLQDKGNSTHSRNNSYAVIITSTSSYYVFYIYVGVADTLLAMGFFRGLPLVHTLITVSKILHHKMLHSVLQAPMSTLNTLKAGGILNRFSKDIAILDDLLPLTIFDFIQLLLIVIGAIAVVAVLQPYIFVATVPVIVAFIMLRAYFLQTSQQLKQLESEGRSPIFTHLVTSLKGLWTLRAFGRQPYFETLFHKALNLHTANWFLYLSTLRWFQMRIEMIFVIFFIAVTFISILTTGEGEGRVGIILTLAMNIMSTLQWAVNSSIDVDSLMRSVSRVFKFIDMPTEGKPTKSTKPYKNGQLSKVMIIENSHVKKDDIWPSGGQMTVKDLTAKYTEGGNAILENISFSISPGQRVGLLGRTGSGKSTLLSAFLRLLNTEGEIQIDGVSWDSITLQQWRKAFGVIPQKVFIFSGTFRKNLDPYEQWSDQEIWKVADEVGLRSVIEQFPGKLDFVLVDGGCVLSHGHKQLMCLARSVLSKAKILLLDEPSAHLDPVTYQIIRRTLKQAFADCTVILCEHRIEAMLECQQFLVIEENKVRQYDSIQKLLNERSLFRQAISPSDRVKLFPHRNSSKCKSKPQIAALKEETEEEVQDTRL
T2 sequence (P13569 with tags, fused parts or gaps DEL508-508): as above

For `COc1ccc(C)cc1[C@@]1(C(=O)NS(=O)(=O)c2cccc3nc(C)ccc23)CC[C@H](c2ccccc2)O1` [Example 12, (2R,5R)-2-(2-methoxy-5-methylphenyl)-N-(2-methylquinoline-5-sulfonyl)-5-phenyloxolane-2-carboxamide], the EC50 on F508delCFTR (setting [1]) was found to be 680 nM; on F508delCFTR (setting [2]), 700 nM; at F508del/F508del CFTR it was 68 nM. Besides, the Emax at F508delCFTR (without co-corrector) came out at 735%. Besides, the “Emax (% Dual)” value on F508del/F508del CFTR was determined as 315 % Dual.

`CCc1ccc(OC[C@H](C)OC)c([C@]2(C(=O)NS(=O)(=O)c3cccc4nc(C)ccc34)CCCO2)c1` [Example 13, (2S)-2-{5-ethyl-2-[(2S)-2-methoxypropoxy]phenyl}-N-(2-methylquinoline-5-sulfonyl)oxolane-2-carboxamide]: the EC50 on F508delCFTR (setting [1]) is 4990 nM; at F508delCFTR (setting [2]) it was 6490 nM; on F508del/F508del CFTR it was more than 300 nM. In addition, the “Maximum % activity (with co-corrector)” value at F508delCFTR (with co-corrector 2 μM) is recorded as 399%. On F508delCFTR (without co-corrector), the Emax is 122%. The “Emax (% Dual)” value at F508del/F508del CFTR turned out to be 119 % Dual.

Consider `COc1ccc(C)cc1[C@@]1(C(=O)NS(=O)(=O)c2cccc3nc(C)ccc23)CC2(CC2)CO1` [Example 15, (6R)-6-(2-methoxy-5-methylphenyl)-N-(2-methylquinoline-5-sulfonyl)-5-oxaspiro[2.4]heptane-6-carboxamide], for which the EC50 at F508delCFTR (setting [1]) worked out at 1010 nM; on F508delCFTR (setting [2]), 1510 nM; at F508del/F508del CFTR, 123 nM. Also, the “Maximum % activity (with co-corrector)” value on F508delCFTR (with co-corrector 2 μM) is 708%. In addition, on F508delCFTR (without co-corrector), the Emax was found to be 307%. Moreover, the “Emax (% Dual)” value on F508del/F508del CFTR was determined as 178 % Dual.

In the case of `COc1ccc(C)cc1[C@]1(C(=O)NS(=O)(=O)c2cccc3nc(C)ccc23)CC2(CC2)CO1` [Example 16, (6S)-6-(2-methoxy-5-methylphenyl)-N-(2-methylquinoline-5-sulfonyl)-5-oxaspiro[2.4]heptane-6-carboxamide], the EC50 was 2550 nM on F508delCFTR (setting [1]), 4800 nM on F508delCFTR (setting [2]) and more than 300 nM at F508del/F508del CFTR. Also, the “Maximum % activity (with co-corrector)” value at F508delCFTR (with co-corrector 2 μM) is reported as 444%. Besides, the Emax on F508delCFTR (without co-corrector) turned out to be 147%. Also, at F508del/F508del CFTR, the “Emax (% Dual)” value was determined as 110 % Dual.

Take `CCc1ccc(Oc2ccccc2)c(C2(C(=O)NS(=O)(=O)c3cccc4nc(C)ccc34)CCCO2)c1` (stereo not drawn) [Example 17, 2-(5-ethyl-2-phenoxyphenyl)-N-(2-methylquinoline-5-sulfonyl)oxolane-2-carboxamide]: the 50% effective concentration (EC50) on F508delCFTR (setting [1]) was found to be 1560 nM; at F508delCFTR (setting [2]), 2660 nM; at F508del/F508del CFTR, 11.5 nM. In addition, the Emax at F508delCFTR (without co-corrector) is 931%. For the same molecule, the “Emax (% Dual)” value at F508del/F508del CFTR is reported as 229 % Dual.

For the molecule `COc1ccc(C)cc1[C@@]1(C(=O)NS(=O)(=O)c2cccc3nc(C)ccc23)C[C@@H](C)CO1` [Example 19, (2R,4R)-2-(2-methoxy-5-methylphenyl)-4-methyl-N-(2-methylquinoline-5-sulfonyl)oxolane-2-carboxamide], the figures for the EC50 at F508delCFTR (setting [1]), at F508delCFTR (setting [2]) and at F508del/F508del CFTR were 720 nM, 880 nM and 33 nM, respectively. At F508delCFTR (with co-corrector 2 μM), the “Maximum % activity (with co-corrector)” value is 850%. Besides, on F508delCFTR (without co-corrector), the Emax amounted to 339%. Also, the “Emax (% Dual)” value on F508del/F508del CFTR stood at 253 % Dual.

`COc1ccc(C)cc1[C@@]1(C(=O)NS(=O)(=O)c2cccc3nc(C)ccc23)C[C@H](C)CO1` [Example 20, (2R,4S)-2-(2-methoxy-5-methylphenyl)-4-methyl-N-(2-methylquinoline-5-sulfonyl)oxolane-2-carboxamide]: the concentration for a half-maximal effect (EC50) stood at 680 nM at F508delCFTR (setting [1]), 1230 nM on F508delCFTR (setting [2]) and 35.1 nM on F508del/F508del CFTR. On F508delCFTR (with co-corrector 2 μM), the “Maximum % activity (with co-corrector)” value was determined as 862%. For the same molecule, at F508delCFTR (without co-corrector), the Emax stood at 366%. Besides, at F508del/F508del CFTR, the “Emax (% Dual)” value was found to be 201 % Dual.

With `CCc1ccc(Oc2cccnc2OC(F)F)c(C2(C(=O)NS(=O)(=O)c3cccc4nc(C)ccc34)CCCO2)c1` (stereo not drawn) [Example 21, 2-(2-{[2-(difluoromethoxy)pyridin-3-yl]oxy}-5-ethylphenyl)-N-(2-methylquinoline-5-sulfonyl)oxolane-2-carboxamide], the concentration giving a half-maximal response (EC50) on F508delCFTR (setting [1]) was 1290 nM; on F508delCFTR (setting [2]), 1540 nM; at F508del/F508del CFTR it was 11.8 nM. The Emax on F508delCFTR (without co-corrector) worked out at 857%. For the same molecule, the “Emax (% Dual)” value at F508del/F508del CFTR was 199 % Dual.

For the molecule `CCc1ccc(Oc2ccccc2)c([C@]2(C(=O)NS(=O)(=O)c3cccc4nc(C)ccc34)CCCO2)c1` [Example 22, (2S)-2-(5-ethyl-2-phenoxyphenyl)-N-(2-methylquinoline-5-sulfonyl)oxolane-2-carboxamide], the EC50 worked out at 1140 nM on F508delCFTR (setting [1]), 1950 nM at F508delCFTR (setting [2]) and 589 nM on F508del/F508del CFTR. The “Maximum % activity (with co-corrector)” value at F508delCFTR (with co-corrector 2 μM) stood at 673%. The Emax at F508delCFTR (without co-corrector) is 235%. The “Emax (% Dual)” value on F508del/F508del CFTR was determined as 200 % Dual.

(Values after patent publication US20220211692A1, “Modulators of the Cystic Fibrosis Transmembrane Conductance Regulator Protein and Methods of Use” (AbbVie Global Enterprises Ltd., priority 2021, published 2022).)
